{"source": "patent US8299070B2", "about": "“Indole compounds and pharmaceutical use thereof” (Japan Tobacco Inc., priority 2009, dated 2012)"}
{"target": "T1, hITK enzyme (FLAG-tagged full-length hITK) (Homo sapiens, UniProt Q08881)", "T1 construct": "strongly expressing FLAG-tagged full-length hITK in Sf9 cells; FLAG; made in house; host or cells: Sf9 insect cells (ITK); Escherichia coli (GST-SLP76 substrate)", "T1 sequence (Q08881 1-620)": "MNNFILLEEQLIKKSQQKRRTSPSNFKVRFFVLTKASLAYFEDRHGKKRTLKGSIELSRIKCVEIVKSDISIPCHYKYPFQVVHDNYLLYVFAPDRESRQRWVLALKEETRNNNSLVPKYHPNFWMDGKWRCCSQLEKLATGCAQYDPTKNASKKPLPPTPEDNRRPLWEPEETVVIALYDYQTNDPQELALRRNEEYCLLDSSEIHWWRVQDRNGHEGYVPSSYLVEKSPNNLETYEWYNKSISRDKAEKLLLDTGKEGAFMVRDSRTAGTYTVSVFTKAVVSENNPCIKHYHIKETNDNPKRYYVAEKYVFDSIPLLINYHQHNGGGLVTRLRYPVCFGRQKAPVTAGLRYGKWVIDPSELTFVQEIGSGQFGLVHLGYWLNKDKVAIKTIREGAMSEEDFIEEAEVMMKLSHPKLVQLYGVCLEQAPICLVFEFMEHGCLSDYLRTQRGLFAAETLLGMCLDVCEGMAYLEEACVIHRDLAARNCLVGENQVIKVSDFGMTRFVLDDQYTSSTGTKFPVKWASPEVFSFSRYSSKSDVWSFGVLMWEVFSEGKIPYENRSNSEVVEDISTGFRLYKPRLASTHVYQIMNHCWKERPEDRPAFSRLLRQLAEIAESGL", "assay": "ITK inhibitory activity (HTRF kinase assay, biotinylated GST-SLP76 substrate)", "assay_type": "biochemical", "settings": "ATP concentration of the substrate solution 6 μmol/L (Examples 380 and 381)", "procedure,_shortened": "(§1)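 Sf9-expressed hITK (50 ng/mL enzyme solution) reacted 10 min at RT in MOPS pH 7.0, 10 mmol/L MgCl2, 1 mmol/L DTT with E. coli SLP76 aa95–175 substrate; substrate solution held 100 µmol/L ATP (6 µmol/L for selected compounds). HTRF 665/620 ratio, blank-corrected; IC50 interpolated between two concentrations bracketing 50% inhibition.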", "units": {"IC50": "µM"}}
{"molecule": "CC(NCCOCC(=O)O)C(=O)N(C)c1ccc2cc(-c3n[nH]c4c3CCC(C)(C)C4)[nH]c2c1", "note": "(centres unmarked) [Example 380]", "IC50": 0.002}
{"molecule": "C[C@H](C(=O)N(C)c1ccc2cc(-c3n[nH]c4c3CCC(C)(C)C4)[nH]c2c1)N1CCOCC1", "note": "[Example 381]", "IC50": 0.002}
{"target": "T1, hITK enzyme (FLAG-tagged full-length hITK)", "assay": "ITK inhibitory activity (HTRF kinase assay, biotinylated GST-SLP76 substrate)", "assay_type": "biochemical", "settings": "IC50 calculated from the 2 test compound concentrations sandwiching 50% ITK inhibitory rate", "procedure,_shortened": "as §1", "units": {"IC50": "µM"}}
{"molecule": "CO[C@H]1CN(C(=O)c2ccc3[nH]c(-c4n[nH]c5c4CCC(C)(C)C5)cc3c2)C[C@H]1OC", "note": "[Example 338]", "IC50": 0.033}
{"molecule": "CN(C(=O)c1ccccc1)c1ccc2[nH]c(-c3n[nH]c4c3CCC(C)(C)C4)cc2c1", "note": "[Example 339]", "IC50": 0.842}
{"molecule": "CCC(=O)N(C)c1ccc2[nH]c(-c3n[nH]c4c3CCC(C)(C)C4)cc2c1", "note": "[Example 340]", "IC50": 0.129}
{"molecule": "CN(C(=O)C1CCOCC1)c1ccc2[nH]c(-c3n[nH]c4c3CCC(C)(C)C4)cc2c1", "note": "[Example 341]", "IC50": 0.333}
{"molecule": "CC(C)CC(=O)N(C)c1ccc2[nH]c(-c3n[nH]c4c3CCC(C)(C)C4)cc2c1", "note": "[Example 342]", "IC50": 0.245}
{"molecule": "CN(C(=O)CO)c1ccc2[nH]c(-c3n[nH]c4c3CCC(C)(C)C4)cc2c1", "note": "[Example 343]", "IC50": 0.135}
{"molecule": "CC1(C)CCc2c(-c3cc4cc(NC(=O)c5ccccc5)ccc4[nH]3)n[nH]c2C1", "note": "[Example 344]", "IC50": 0.278}
{"molecule": "CCC(=O)Nc1ccc2[nH]c(-c3n[nH]c4c3CCC(C)(C)C4)cc2c1", "note": "[Example 345]", "IC50": 0.088}
{"molecule": "CO[C@H]1CC[C@@H](C(=O)N(C)c2ccc3cc(-c4n[nH]c5c4CCC(C)(CO)C5)[nH]c3c2)CC1", "note": "(some centres unmarked) [Example 346]", "IC50": 0.005}
{"molecule": "COCC1(C)CCc2c(-c3cc4ccc(N(C)C(=O)CN5CCCCC5=O)cc4[nH]3)n[nH]c2C1", "note": "(centres unmarked) [Example 347]", "IC50": 0.004}
{"molecule": "COCC1(C)CCc2c(-c3cc4ccc(N(C)C(=O)[C@H]5CC[C@@H](OC)CC5)cc4[nH]3)n[nH]c2C1", "note": "(some centres unmarked) [Example 348]", "IC50": 0.008}
{"molecule": "CN(C(=O)C1CCCC1)c1ccc2cc(-c3n[nH]c4c3CCC(C)(CO)C4)[nH]c2c1", "note": "(centres unmarked) [Example 349]", "IC50": 0.002}
{"molecule": "CN(C(=O)c1ccccc1)c1ccc2cc(-c3n[nH]c4c3CCCC4)[nH]c2c1", "note": "[Example 350]", "IC50": 0.062}
{"molecule": "CCC(=O)N(C)c1ccc2cc(-c3n[nH]c4c3CCCC4)[nH]c2c1", "note": "[Example 351]", "IC50": 0.024}
{"molecule": "COCC(=O)N(C)c1ccc2cc(-c3n[nH]c4c3CCCC4)[nH]c2c1", "note": "[Example 352]", "IC50": 0.037}
{"molecule": "COCC(=O)N(C)c1ccc2cc(-c3n[nH]c4c3CC[C@@H](C)C4)[nH]c2c1", "note": "[Example 353]", "IC50": 0.016}
{"molecule": "CCC(=O)N(C)c1ccc2cc(-c3n[nH]c4c3CC[C@@H](C)C4)[nH]c2c1", "note": "[Example 354]", "IC50": 0.016}
{"molecule": "CCC(=O)N(C)c1ccc2cc(-c3n[nH]c4c3CCC(C)C4)[nH]c2c1", "note": "(centres unmarked) [Example 355]", "IC50": 0.009}
{"molecule": "COCC(=O)N(C)c1ccc2cc(-c3n[nH]c4c3CCC(C)C4)[nH]c2c1", "note": "(centres unmarked) [Example 356]", "IC50": 0.009}
{"molecule": "CC1CCc2c(-c3cc4ccc(N(C)C(=O)c5ccccc5)cc4[nH]3)n[nH]c2C1", "note": "(centres unmarked) [Example 357]", "IC50": 0.029}
{"molecule": "C[C@@H]1CCc2c(-c3cc4ccc(N(C)C(=O)c5ccccc5)cc4[nH]3)n[nH]c2C1", "note": "[Example 358]", "IC50": 0.038}
{"molecule": "CC(C)OCC(=O)N(C)c1ccc2cc(-c3n[nH]c4c3CCCC4)[nH]c2c1", "note": "[Example 359]", "IC50": 0.021}
{"molecule": "CC(=O)N(C)c1ccc2cc(-c3n[nH]c4c3CCCC4)[nH]c2c1", "note": "[Example 360]", "IC50": 0.067}
{"molecule": "CC(C)CC(=O)N(C)c1ccc2cc(-c3n[nH]c4c3CCCC4)[nH]c2c1", "note": "[Example 361]", "IC50": 0.02}
{"molecule": "CN(C(=O)COc1ccccc1)c1ccc2cc(-c3n[nH]c4c3CCCC4)[nH]c2c1", "note": "[Example 362]", "IC50": 0.012}
{"molecule": "CN(C(=O)OCc1ccccc1)c1ccc2cc(-c3n[nH]c4c3CC(OCc3ccccc3)C(C)(C)C4)[nH]c2c1", "note": "(centres unmarked) [Example 363]", "IC50": 0.485}
{"molecule": "CCC(=O)N(C)c1ccc2cc(-c3n[nH]c4c3CC(OCc3ccccc3)C(C)(C)C4)[nH]c2c1", "note": "(centres unmarked) [Example 364]", "IC50": 0.045}
{"molecule": "CCC(=O)N(C)c1ccc2cc(-c3n[nH]c4c3CC(O)CC4)[nH]c2c1", "note": "(centres unmarked) [Example 365]", "IC50": 0.045}
{"molecule": "COCC(=O)N(C)c1ccc2cc(-c3n[nH]c4c3CC(O)CC4)[nH]c2c1", "note": "(centres unmarked) [Example 366]", "IC50": 0.082}
{"molecule": "CN(C(=O)c1ccccc1)c1ccc2cc(-c3n[nH]c4c3CC(O)CC4)[nH]c2c1", "note": "(centres unmarked) [Example 367]", "IC50": 0.075}
{"molecule": "CCC(=O)N(C)c1ccc2cc(-c3n[nH]c4c3CC(OC)CC4)[nH]c2c1", "note": "(centres unmarked) [Example 368]", "IC50": 0.131}
{"molecule": "COCC(=O)N(C)c1ccc2cc(-c3n[nH]c4c3CC(OC)CC4)[nH]c2c1", "note": "(centres unmarked) [Example 369]", "IC50": 0.207}
{"molecule": "COC1CCc2[nH]nc(-c3cc4ccc(N(C)C(=O)c5ccccc5)cc4[nH]3)c2C1", "note": "(centres unmarked) [Example 370]", "IC50": 0.204}
{"molecule": "CCC(=O)N(C)c1ccc2cc(-c3n[nH]c4c3CC(OC(C)C)CC4)[nH]c2c1", "note": "(centres unmarked) [Example 371]", "IC50": 0.112}
{"molecule": "CCC(=O)N(C)c1ccc2cc(-c3n[nH]c4c3CC(OC)C(C)(C)C4)[nH]c2c1", "note": "(centres unmarked) [Example 372]", "IC50": 0.011}
{"molecule": "CCC(=O)N(C)c1ccc2cc(-c3n[nH]c4c3CC(O)C(C)(C)C4)[nH]c2c1", "note": "(centres unmarked) [Example 373]", "IC50": 0.008}
{"molecule": "CC(=O)Nc1ccc2cc(-c3n[nH]c4c3CCC(C)(C)C4)[nH]c2c1", "note": "[Example 374]", "IC50": 0.13}
{"molecule": "C[C@@H](C(=O)Nc1ccc2cc(-c3n[nH]c4c3CCC(C)(C)C4)[nH]c2c1)N1CCOCC1", "note": "[Example 375]", "IC50": 0.11}
{"molecule": "CC(NCCO)C(=O)N(C)c1ccc2cc(-c3n[nH]c4c3CCC(C)(C)C4)[nH]c2c1", "note": "(centres unmarked) [Example 376]", "IC50": 0.002}
{"molecule": "CC(N)C(=O)N(C)c1ccc2cc(-c3n[nH]c4c3CCC(C)(C)C4)[nH]c2c1", "note": "(centres unmarked) [Example 377]", "IC50": 0.006}
{"molecule": "CC(C(=O)N(C)c1ccc2cc(-c3n[nH]c4c3CCC(C)(C)C4)[nH]c2c1)N1CCOC(O)C1", "note": "(centres unmarked) [Example 378]", "IC50": 0.002}
{"molecule": "CC(C(=O)N(C)c1ccc2cc(-c3n[nH]c4c3CCC(C)(C)C4)[nH]c2c1)N(CCO)CC(=O)O", "note": "(centres unmarked) [Example 379]", "IC50": 0.004}
